Results taken from doi:10.1101/2020.09.15.275891v2 (biorxiv, 2020).

What was measured:
[1] = target: mature MHV M^pro (Murine hepatitis virus strain A59, UniProt P0C6X9); assay: fluorogenic peptide cleavage; type: biochemical
[2] = in vitro; conditions: human, caco-2 cells
[3] = target: mature SARSCoV2 M^pro (Severe acute respiratory syndrome coronavirus 2, UniProt P0DTD1); assay: biochemical

mature MHV M^pro, sequence (P0C6X9 3334-3635): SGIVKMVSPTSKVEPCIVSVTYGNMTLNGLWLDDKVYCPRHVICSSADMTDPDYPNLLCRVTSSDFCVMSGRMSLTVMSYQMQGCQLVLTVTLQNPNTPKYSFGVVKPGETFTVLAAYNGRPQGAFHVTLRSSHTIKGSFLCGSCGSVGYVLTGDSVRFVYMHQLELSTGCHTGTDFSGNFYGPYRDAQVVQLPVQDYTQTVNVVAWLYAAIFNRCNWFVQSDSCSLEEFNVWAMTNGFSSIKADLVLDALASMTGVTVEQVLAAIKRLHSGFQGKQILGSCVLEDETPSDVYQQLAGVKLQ

SMILES	IC50 [1]	CC50 [2]	IC50 [3]
CC(C)(C)NC(=O)N[C@H](C(=O)N1C[C@H]2[C@@H]([C@H]1C(=O)NC(CC1CCC1)C(=O)C(N)=O)C2(C)C)C(C)(C)C (some centres unmarked) [boceprevir]	15 ± 7 µM	> 100 µM	–
CC(C)(C)NC(=O)N[C@H](C(=O)N1C[C@@H]2CCC[C@@H]2[C@H]1C(=O)N[C@@H](C[C@@H]1CCNC1=O)C(=O)C(N)=O)C(C)(C)C [ML1100]	0.301 ± 0.152 µM	> 100 µM	0.147 ± 0.008 µM
CC(C)C[C@H](NC(=O)OCc1ccccc1)C(=O)N[C@@H](C[C@@H]1CCNC1=O)C(O)S(=O)(=O)O (some centres unmarked) [GC-376]	–	> 100 µM	–
CC(C)(C)NC(=O)N[C@H](C(=O)N1C[C@H]2[C@@H]([C@H]1C(=O)N[C@@H](C[C@@H]1CCNC1=O)C(=O)C(N)=O)C2(C)C)C(C)(C)C [ML1000]	0.13 ± 0.025 µM	> 100 µM	–
